pIC50: −log10 of the molar value.
Columns and labels:
[1] = system: in vitro translated Gag-Pol precursor; set-up: method as in PMID 15280456; conditions: ref [21]; cited from earlier work
[2] = molecular target: T1, PR^NL H69D precursor (Human immunodeficiency virus type 1 group M subtype B, UniProt P12497, H557D); type: cell-based, HIV-1; conditions: darunavir, Figure 2F
T1 construct: expressed in transfected cells; host or cells: HEK293T
Protocol: (§1) HEK293T cells (ATCC, Manassas, VA) were maintained in DMEM containing 10% fetal bovine serum and penicillin/streptomycin (0.6% Penicillin G sodium salt, 1.0% Streptomycin sulfate, 0.85% NaCl). Plasmid DNA was transfected into HEK293T cells using calcium phosphate as previously described [25, 46]. Briefly, HEK293T cells were seeded in 12-well plates the day before transfection to achieve 50~60% confluence at the time of transfection. About 1 h prior to transfection, chloroquine was added into each well to a final concentration of 25 μM. A total of 0.5 μg plasmid DNA in 65.7 μl H2O was mixed with 9.3 μl of 2 M CaCl2. Then 75 μl of 2xHBS (50 mM Hepes, pH7.04~7.05, 10 mM KCl, 12 mM Dextrose, 280 mM NaCl, 1.5 mM Na2HPO4) was added to the DNA-Ca mixture followed by gentle agitation. The resulting mixture was directly added drop-wise to each well. […] After 7-8 h incubation at 37°C, 5% CO2, the transfection medium was replaced with fresh chloroquine-free medium containing the corresponding protease inhibitors. […]
(§2) For quantification of protein intensity, Western blot images captured by an Odyssey infrared dual laser scanning unit were analyzed using TotalLab software (Nonlinear Dynamics Inc.). The total pixel volume of each band was quantified and normalized; the highest value was arbitrarily set at 1000.

[3] = molecular target: embedded protease of GST-p6*-PR^NL-HA / GST-M1-PR^NL-HA fusion precursor (proximal site) (Human immunodeficiency virus type 1, UniProt P12497); assay: P site cleavage reaction mediated by the embedded protease, PR^NL fusion precursor, HEK293T cells; type: cell-based, HIV-1; conditions: darunavir; embedded vs released protease
Protocol: as §1, §2

[4] = system: mature protease; conditions: ref [40],[41]; cited from earlier work
[5] = system: HIV-1 infected cells (p24 production); conditions: ref [40],[41], read-out: IC50 to inhibit the production of p24; cited from earlier work
[6] = system: embedded protease of GST-M2-PR (tagless precursor); assay: P site cleavage reaction, tagless precursor GST-M2-PR; type: cell-based, HIV-1; set-up: dose or concentration left out as unconfirmed; conditions: […] nM darunavir
Description: To examine whether different amino acid sequences fused to the C-terminus of PR influence protease autoprocessing, we engineered a panel of fusion precursors carrying different C-terminal epitopes (Figure 5A). A truncated version of M2 p6* (Figure 2A) was used to allow focused examination of the P site cleavage reaction. We also constructed GST-M2-PR, a precursor lacking any C-terminal epitope, to serve as a reference control.
HEK293T cells (ATCC, Manassas, VA) were maintained in DMEM containing 10% fetal bovine serum and penicillin/streptomycin (0.6% Penicillin G sodium salt, 1.0% Streptomycin sulfate, 0.85% NaCl). Plasmid DNA was transfected into HEK293T cells using calcium phosphate as previously described [25, 46]. Briefly, HEK293T cells were seeded in 12-well plates the day before transfection to achieve 50~60% confluence at the time of transfection. About 1 h prior to transfection, chloroquine was added into each well to a final concentration of 25 μM. A total of 0.5 μg plasmid DNA in 65.7 μl H2O was mixed with 9.3 μl of 2 M CaCl2. […]
as §2

Row | Structure (SMILES) | sensitivity of Gag-Pol precursor to inhibition compared to the mature protease [1] | suppression of autoprocessing reactions mediated by the embedded H69D PR [2] | effect of treatment on the amount of the released proteases (H69D) ([2]; PR^NL H69D precursor) | embedded protease less sensitive to inhibition than the corresponding released protease [3] | affinity for the catalytic site of the mature protease [4] | pIC50 [5] | suppression of the cleavage reaction, tagless precursor [6]
1 | CC(C)c1nc(CN(C)C(=O)N[C@H](C(=O)N[C@@H](Cc2ccccc2)C[C@H](O)[C@H](Cc2ccccc2)NC(=O)OCc2cncs2)C(C)C)cs1 [ritonavir] | significantly low sensitivity |  |  |  |  |  | 
2 | CC(C)CN(C[C@@H](O)[C@H](Cc1ccccc1)NC(=O)O[C@H]1CO[C@H]2OCC[C@H]21)S(=O)(=O)c1ccc(N)cc1 [darunavir] |  | not suppressed | did not increase | at least 100 fold | low nanomolar | ~8.30 | not suppressed
